Measurements reported in paper PMC9667936, “Functional mapping of the 14-3-3 hub protein as a guide to design 14-3-3 molecular glues” (Chemical Science, 2022).
Where a SMILES comes first, the peptide text is derived from it. [ ]: non-standard residue; d: D form. The star is where a group is joined. ξ: configuration not given here. FITC = O=C1OC2(c3ccc(O)cc3Oc3cc(O)ccc32)c2ccc(NC(=S)*)cc21; Phe(4-NO2) = N[C@@H](Cc1ccc([N+](=O)[O-])cc1)C(=O)O; ξAla(4-thiazolyl) = NC(Cc1cscn1)C(=O)O; pS = N[C@@H](COP(=O)(O)O)C(=O)O; β3hS = N[C@@H](CO)CC(=O)O; Nva = CCC[C@H](N)C(=O)O; βAla = NCCC(=O)O

Target: T1, 14-3-3γ (Homo sapiens, UniProt P61981)
T1 construct: made in house; host or cells: E. coli NiCo21 (DE3)
T1 sequence (P61981 1-247): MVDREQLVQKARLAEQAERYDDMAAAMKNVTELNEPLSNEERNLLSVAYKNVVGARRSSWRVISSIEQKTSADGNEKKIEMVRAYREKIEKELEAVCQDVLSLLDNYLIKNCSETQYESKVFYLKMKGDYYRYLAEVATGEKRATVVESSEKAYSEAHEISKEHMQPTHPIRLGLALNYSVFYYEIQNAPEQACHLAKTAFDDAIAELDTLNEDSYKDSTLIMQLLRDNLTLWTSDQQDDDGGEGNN
Experiment: Fluorescence anisotropy (FA) binary binding study: 14-3-3 titrated to fluorescein-labelled peptide
Conditions: for ΔΔG of point mutation (FA): relative to 1, mean ± SD, SD; for Affinity Kd / Kd: Table S4, point-mutated peptides; for Affinity Kd: 10 nM FITC-labelled peptide; for Kd: 14-3-3 titrated to 10 nM FITC-labelled peptide, HEPES pH 7.4, room temperature, 4PL fit, read-out: Affinity Kd
In short: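 N-terminal His6-tagged full-length human 14-3-3γ expressed in E. coli, Ni-NTA purified and dialyzed into 25 mM HEPES pH 8.0, 100 mM NaCl, 10 mM MgCl2, 500 μM TCEP. Tag-cleaved 14-3-3σ truncated after T231 used for crystallography. Labelled peptides made by Fmoc solid-phase synthesis.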

[1] = Table S4, FA Kd / Kd of 1, replicate 1
[2] = Table S4, FA Kd / Kd of 1, replicate 2
[3] = Table S4, FA Kd / Kd of 1, replicate 3
[4] = Table S4, FA Kd of peptide divided by Kd of 1, mean of n = 3
[5] = Table S4, calculated from FA Kd, mean of n = 3
[6] = Table S4, from FA Kd, replicate 1
[7] = Table S4, from FA Kd, replicate 2
[8] = Table S4, from FA Kd, replicate 3
[9] = Table S4, ΔG minus ΔG of 1, FA, replicate 1
[10] = Table S4, ΔG minus ΔG of 1, FA, replicate 2
[11] = Table S4, ΔG minus ΔG of 1, FA, replicate 3
[12] = Table S4, ΔG of peptide minus ΔG of 1, FA, mean of n = 3

Structure (SMILES)	ΔΔG of point mutation (FA) (FA) [kcal/mol]	Affinity Kd (FA, replicate 1) [nM]	Affinity Kd (FA, replicate 2) [nM]	Affinity Kd (FA, replicate 3) [nM]	Kd (FA, mean of n = 3) [nM]	Fold change to 1 [1]	Fold change to 1 [2]	Fold change to 1 [3]	Fold change to 1 [4]	ΔG [5] [kcal/mol]	ΔG [6] [kcal/mol]	ΔG [7] [kcal/mol]	ΔG [8] [kcal/mol]	ΔΔG to 1 [9] [kcal/mol]	ΔΔG to 1 [10] [kcal/mol]	ΔΔG to 1 [11] [kcal/mol]	ΔΔG to 1 [12] [kcal/mol]	further results
CCC[C@H](NC(=O)[C@H](N)CCCCN)C(=O)N[C@@H](Cc1ccc([N+](=O)[O-])cc1)C(=O)N[C@@H](C)C(=O)N[C@@H](COP(=O)(O)O)C(=O)N[C@@H](Cc1ccc([N+](=O)[O-])cc1)C(=O)N[C@@H](CO)CC(=O)NCCC(=O)N[C@@H](Cc1ccc([N+](=O)[O-])cc1)C(=O)N[C@@H](CCCCN)C(N)=O [3a] (H-[dK][Nva][Phe(4-NO2)]A[pS][Phe(4-NO2)][β3hS][βAla][Phe(4-NO2)]K-NH2; N-terminus and C-terminus assumed)	0.0 ± 0.4	100	42	72	71	1.9	0.6	1.0	1.2	-9.8	-9.5	-10.1	-9.7	0.4	-0.3	0.0	0.0	–
CCC[C@H](NC(=O)[C@H](N)CCCCN)C(=O)N[C@@H](Cc1ccc([N+](=O)[O-])cc1)C(=O)NC(Cc1cscn1)C(=O)N[C@@H](COP(=O)(O)O)C(=O)N[C@@H](Cc1ccc([N+](=O)[O-])cc1)C(=O)N[C@@H](CO)CC(=O)NCCC(=O)N[C@@H](C)C(=O)N[C@@H](CCCCN)C(N)=O (stereo partly drawn) [5c] (H-[dK][Nva][Phe(4-NO2)][ξAla(4-thiazolyl)][pS][Phe(4-NO2)][β3hS][βAla]AK-NH2; N-terminus and C-terminus assumed)	–	3200	2200	2900	2800	62.1	31.0	39.8	44.3	-7.6	-7.5	-7.7	-7.5	2.4	2.0	2.2	2.2	–
C[C@H](NC(=O)[C@H](CCCCN)NC(=O)[C@H](Cc1ccc([N+](=O)[O-])cc1)NC(=O)CCNC(=O)C[C@H](CO)NC(=O)[C@H](Cc1ccc([N+](=O)[O-])cc1)NC(=O)[C@H](COP(=O)(O)O)NC(=O)C(N)Cc1cscn1)C(=O)N[C@@H](CCCCNC(=S)Nc1ccc2c(c1)C(=O)OC21c2ccc(O)cc2Oc2cc(O)ccc21)C(N)=O (stereo partly drawn) [2c] (H-[ξAla(4-thiazolyl)][pS][Phe(4-NO2)][β3hS][βAla][Phe(4-NO2)]KAK(FITC)-NH2)	–	–	–	–	–	–	–	–	–	–	–	–	–	–	–	–	–	individual ΔΔG of removed residue (FA, ΔG relative to the previously truncated peptide): only minor energy contributions; Fold change to previous (Table S2, FA KD of peptide divided by KD of previous (one amino acid longer) peptide, mean of n = 3): 0,53; Fold change to previous (Table S2, KD / KD of previous (one amino acid longer) peptide, replicate 1): 0,51; Fold change to previous (Table S2, KD / KD of previous (one amino acid longer) peptide, replicate 2): 0,53; Fold change to previous (Table S2, KD / KD of previous (one amino acid longer) peptide, replicate 3): 0,56; ΔG (Table S2, calculated from FA KD, mean of n = 3): -9,90 kcal/mol; ΔG (Table S2, from FA KD, replicate 1): -9,93 kcal/mol; ΔG (Table S2, from FA KD, replicate 2): -9,88 kcal/mol; ΔG (Table S2, from FA KD, replicate 3): -9,88 kcal/mol; ΔΔG (to previous) (Table S2, ΔG minus ΔG of previous peptide, FA, replicate 1): -0,40 kcal/mol; ΔΔG (to previous) (Table S2, ΔG minus ΔG of previous peptide, FA, replicate 2): -0,38 kcal/mol; ΔΔG (to previous) (Table S2, ΔG minus ΔG of previous peptide, FA, replicate 3): -0,34 kcal/mol; ΔΔG (to previous) (Table S2, ΔG of peptide minus ΔG of previous (one amino acid longer) peptide, FA, mean of n = 3): -0,37 kcal/mol
CCC[C@H](NC(=O)[C@H](N)CCCCN)C(=O)N[C@@H](Cc1ccc([N+](=O)[O-])cc1)C(=O)NC(Cc1cscn1)C(=O)N[C@@H](COP(=O)(O)O)C(=O)N[C@@H](Cc1ccccc1)C(=O)N[C@@H](CO)CC(=O)NCCC(=O)N[C@@H](Cc1ccc([N+](=O)[O-])cc1)C(=O)N[C@@H](CCCCN)C(N)=O (stereo partly drawn) [4b] (H-[dK][Nva][Phe(4-NO2)][ξAla(4-thiazolyl)][pS]F[β3hS][βAla][Phe(4-NO2)]K-NH2; N-terminus and C-terminus assumed)	-0.1 ± 0.3	46	33	87	55	0.9	0.5	1.2	0.8	-9.9	-10.0	-10.2	-9.6	-0.1	-0.5	0.1	-0.1	–
CCC[C@H](NC(=O)[C@H](N)CCCCN)C(=O)N[C@@H](Cc1ccc([N+](=O)[O-])cc1)C(=O)NC(Cc1cscn1)C(=O)N[C@@H](COP(=O)(O)O)C(=O)N[C@@H](Cc1ccc([N+](=O)[O-])cc1)C(=O)N[C@@H](CO)CC(=O)NCCC(=O)N[C@@H](Cc1ccccc1)C(=O)N[C@@H](CCCCN)C(N)=O (stereo partly drawn) [5b] (H-[dK][Nva][Phe(4-NO2)][ξAla(4-thiazolyl)][pS][Phe(4-NO2)][β3hS][βAla]FK-NH2; N-terminus and C-terminus assumed)	–	1300	1200	1800	1400	24.3	16.9	24.9	22.0	-8.0	-8.0	-8.1	-7.8	1.9	1.7	1.9	1.8	–
CCC[C@H](NC(=O)[C@H](N)CCCCN)C(=O)N[C@@H](Cc1ccc([N+](=O)[O-])cc1)C(=O)NC(Cc1cscn1)C(=O)N[C@@H](COP(=O)(O)O)C(=O)N[C@@H](C)C(=O)N[C@@H](CO)CC(=O)NCCC(=O)N[C@@H](Cc1ccc([N+](=O)[O-])cc1)C(=O)N[C@@H](CCCCN)C(N)=O (stereo partly drawn) [4c] (H-[dK][Nva][Phe(4-NO2)][ξAla(4-thiazolyl)][pS]A[β3hS][βAla][Phe(4-NO2)]K-NH2; N-terminus and C-terminus assumed)	1.8 ± 0.1	1200	1200	1600	1300	24.0	17.0	21.3	20.8	-8.0	-8.1	-8.1	-7.9	1.9	1.7	1.8	1.8	–
